From ChEMBL document CHEMBL1201862, “PubChem BioAssay data set” (2004)
Active and inactive are the calls of the source.

What was measured:
[1] = molecular target: T1, Rac GTPase-activating protein 1 (Homo sapiens, UniProt Q9H0H5); test: blockers of MgcRacGAP-driven Rac1 GTP hydrolysis – biochemical, ADP Hunter fluorescence, primary and confirmatory, confirmation (AID 624330); assay type: functional
T1 sequence (Q9H0H5 whole entry): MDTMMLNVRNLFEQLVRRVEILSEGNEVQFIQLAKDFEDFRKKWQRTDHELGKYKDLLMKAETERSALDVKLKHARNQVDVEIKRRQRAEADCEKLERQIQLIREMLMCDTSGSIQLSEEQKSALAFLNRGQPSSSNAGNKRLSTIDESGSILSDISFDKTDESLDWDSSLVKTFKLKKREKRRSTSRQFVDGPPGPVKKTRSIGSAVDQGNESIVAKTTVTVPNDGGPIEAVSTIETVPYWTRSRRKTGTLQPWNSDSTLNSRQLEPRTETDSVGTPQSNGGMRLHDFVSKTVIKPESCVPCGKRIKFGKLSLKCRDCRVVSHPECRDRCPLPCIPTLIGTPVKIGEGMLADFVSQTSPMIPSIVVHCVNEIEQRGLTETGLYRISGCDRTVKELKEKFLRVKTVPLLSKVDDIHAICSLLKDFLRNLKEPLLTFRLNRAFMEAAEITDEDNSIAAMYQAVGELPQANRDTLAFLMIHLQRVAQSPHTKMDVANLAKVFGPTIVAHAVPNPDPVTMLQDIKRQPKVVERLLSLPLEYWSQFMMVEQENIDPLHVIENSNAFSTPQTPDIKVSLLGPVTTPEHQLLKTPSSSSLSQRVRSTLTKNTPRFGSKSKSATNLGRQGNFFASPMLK

Protein skinhead-1 = molecular target: T2, Protein skinhead-1 (Caenorhabditis elegans, UniProt P34707); assay type: functional
T2 sequence (P34707 whole entry): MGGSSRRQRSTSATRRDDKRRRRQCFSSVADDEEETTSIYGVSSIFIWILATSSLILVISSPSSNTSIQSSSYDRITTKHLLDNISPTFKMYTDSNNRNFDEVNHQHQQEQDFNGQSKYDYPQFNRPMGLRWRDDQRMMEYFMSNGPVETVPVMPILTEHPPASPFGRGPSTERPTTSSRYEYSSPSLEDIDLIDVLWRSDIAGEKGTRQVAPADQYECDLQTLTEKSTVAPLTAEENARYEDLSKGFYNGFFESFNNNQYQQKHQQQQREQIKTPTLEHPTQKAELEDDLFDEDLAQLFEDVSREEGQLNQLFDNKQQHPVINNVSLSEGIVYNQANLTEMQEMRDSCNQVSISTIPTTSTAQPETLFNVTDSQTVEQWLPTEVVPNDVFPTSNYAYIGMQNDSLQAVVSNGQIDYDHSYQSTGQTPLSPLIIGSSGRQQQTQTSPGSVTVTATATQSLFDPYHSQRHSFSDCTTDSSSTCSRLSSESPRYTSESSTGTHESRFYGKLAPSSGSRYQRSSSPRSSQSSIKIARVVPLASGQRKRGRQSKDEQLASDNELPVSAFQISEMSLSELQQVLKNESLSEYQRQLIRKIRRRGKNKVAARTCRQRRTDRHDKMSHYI

[2] = molecular target: T3, High affinity choline transporter 1 (Homo sapiens, UniProt Q9GZV3); test: human choline transporter blockers, potency – cell-based, 5-point CRC, membrane potential dye, dose response (AID 504840); assay type: functional
T3 sequence (Q9GZV3 whole entry): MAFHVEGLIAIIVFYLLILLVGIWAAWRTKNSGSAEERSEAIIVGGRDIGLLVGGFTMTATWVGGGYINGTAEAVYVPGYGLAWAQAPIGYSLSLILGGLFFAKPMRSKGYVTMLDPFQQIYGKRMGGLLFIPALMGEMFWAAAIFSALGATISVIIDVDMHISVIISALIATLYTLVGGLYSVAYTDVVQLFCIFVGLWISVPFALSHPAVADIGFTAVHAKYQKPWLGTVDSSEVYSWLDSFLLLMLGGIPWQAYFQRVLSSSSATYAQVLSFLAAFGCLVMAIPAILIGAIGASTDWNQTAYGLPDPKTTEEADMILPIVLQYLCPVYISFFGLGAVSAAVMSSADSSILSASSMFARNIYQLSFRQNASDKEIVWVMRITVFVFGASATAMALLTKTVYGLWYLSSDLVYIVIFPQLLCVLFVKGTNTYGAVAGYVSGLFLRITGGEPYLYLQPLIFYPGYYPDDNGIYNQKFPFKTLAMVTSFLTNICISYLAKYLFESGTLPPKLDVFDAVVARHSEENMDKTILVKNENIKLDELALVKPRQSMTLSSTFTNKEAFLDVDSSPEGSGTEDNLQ

[3] = luciferase reporter signal suppression in cells – H4 neuroglioma cells, luminescence, dose response (AID 1990); assay type: functional, cell-based
[4] = Luminescence Cell-Based Dose Response HTS to Identify Inhibitors of 5'UTR Stem-Loop Driven Prion Protein mRNA Translation in H4 Neuroglioblastoma Cells. [Related pubchem assays: 1827 (Project Summary), 1813 (Primary HTS)]; assay type: functional
[5] = alpha-synuclein stem-loop luciferase translation blockers – H4 neuroglioma cells, luminescence, confirmation (AID 1988); assay type: functional, cell-based
[6] = molecular target: T4, Replicative DNA helicase DnaB (Mycobacterium tuberculosis, UniProt P9WMR3); test: DnaB intein splicing inhibitors, dose response, biochemical, cell-free fluorescence (AID 449749); assay type: functional
T4 sequence (P9WMR3 whole entry): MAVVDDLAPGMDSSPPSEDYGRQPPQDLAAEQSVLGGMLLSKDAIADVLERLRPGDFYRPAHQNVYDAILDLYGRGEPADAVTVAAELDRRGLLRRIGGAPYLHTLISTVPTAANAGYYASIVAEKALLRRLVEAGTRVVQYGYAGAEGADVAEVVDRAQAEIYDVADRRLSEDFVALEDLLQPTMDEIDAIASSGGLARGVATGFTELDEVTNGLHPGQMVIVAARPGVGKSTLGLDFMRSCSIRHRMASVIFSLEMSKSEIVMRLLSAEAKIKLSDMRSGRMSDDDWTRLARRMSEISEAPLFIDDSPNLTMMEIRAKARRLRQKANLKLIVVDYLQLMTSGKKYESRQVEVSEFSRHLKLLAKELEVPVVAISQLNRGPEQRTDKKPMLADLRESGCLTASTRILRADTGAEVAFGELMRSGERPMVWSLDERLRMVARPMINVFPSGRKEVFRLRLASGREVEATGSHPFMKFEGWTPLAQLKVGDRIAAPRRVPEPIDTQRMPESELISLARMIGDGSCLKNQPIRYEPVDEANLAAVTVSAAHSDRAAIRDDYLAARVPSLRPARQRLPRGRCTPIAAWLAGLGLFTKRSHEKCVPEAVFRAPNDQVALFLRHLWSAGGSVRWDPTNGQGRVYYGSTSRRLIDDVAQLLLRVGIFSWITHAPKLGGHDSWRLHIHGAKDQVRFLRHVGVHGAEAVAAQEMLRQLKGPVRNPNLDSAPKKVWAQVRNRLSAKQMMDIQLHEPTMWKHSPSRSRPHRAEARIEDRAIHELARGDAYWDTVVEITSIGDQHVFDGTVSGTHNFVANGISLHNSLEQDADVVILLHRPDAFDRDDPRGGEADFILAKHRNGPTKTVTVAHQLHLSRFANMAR

Protein RecA = molecular target: T5, Protein RecA (Mycobacterium tuberculosis, UniProt P9WHJ3); test: Fluorescence Cell-Free Homogeneous Dose Retest to Identify Inhibitors of RecA-Intein Splicing Activity. [Related pubchem assays (depositor defined):AID2097, AID2223, AID489010, AID492950]; assay type: functional
T5 sequence (P9WHJ3 whole entry): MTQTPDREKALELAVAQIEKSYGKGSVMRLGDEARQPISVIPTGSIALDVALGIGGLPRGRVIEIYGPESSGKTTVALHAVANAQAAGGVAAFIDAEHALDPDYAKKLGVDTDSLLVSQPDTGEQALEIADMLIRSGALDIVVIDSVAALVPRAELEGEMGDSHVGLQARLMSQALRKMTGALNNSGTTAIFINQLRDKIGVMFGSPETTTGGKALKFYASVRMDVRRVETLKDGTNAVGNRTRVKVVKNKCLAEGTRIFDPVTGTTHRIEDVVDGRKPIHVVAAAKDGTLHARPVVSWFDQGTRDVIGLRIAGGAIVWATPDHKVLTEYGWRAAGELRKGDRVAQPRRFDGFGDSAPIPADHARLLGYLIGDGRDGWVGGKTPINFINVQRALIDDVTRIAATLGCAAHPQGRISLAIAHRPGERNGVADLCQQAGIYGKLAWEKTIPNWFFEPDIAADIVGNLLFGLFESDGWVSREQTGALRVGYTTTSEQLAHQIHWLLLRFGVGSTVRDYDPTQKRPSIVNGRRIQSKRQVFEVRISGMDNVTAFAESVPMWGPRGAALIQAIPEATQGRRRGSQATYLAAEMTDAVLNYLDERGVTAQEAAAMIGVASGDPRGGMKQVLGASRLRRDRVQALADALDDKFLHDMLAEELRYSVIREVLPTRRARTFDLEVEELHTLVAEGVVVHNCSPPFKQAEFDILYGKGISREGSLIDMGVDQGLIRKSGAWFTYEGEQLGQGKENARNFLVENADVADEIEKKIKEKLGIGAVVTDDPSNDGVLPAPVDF

Cytochrome P450 2C19 = Cytochrome P450 2C19 (Homo sapiens, UniProt P33261); test: Cytochrome panel assay with activity outcomes. Panel member name: p450-cyp2c19 Compounds with AC50 equal or less than 10 uM are considered active; assay type: functional; details: read-out: AC50
Cytochrome P450 3A4 = Cytochrome P450 3A4 (Homo sapiens, UniProt P08684);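 also: CYP3A4 tested as one member of a cytochrome P450 panel screen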
[7] = viability of uninfected HEp-2 cells – cell-based, HTS, cytotoxicity control for RSV inhibitor project, dose response (AID 2410); assay type: functional; details: human respiratory syncytial virus
[8] = Luminescence Cell-Based Dose Retest to Confirm Inhibitors of Cancer Stem Cells. [Related pubchem assays (depositor defined):AID2717, AID2721]; assay type: functional; details: Homo sapiens

Sequence of Cytochrome P450 2C19 (P33261 whole entry): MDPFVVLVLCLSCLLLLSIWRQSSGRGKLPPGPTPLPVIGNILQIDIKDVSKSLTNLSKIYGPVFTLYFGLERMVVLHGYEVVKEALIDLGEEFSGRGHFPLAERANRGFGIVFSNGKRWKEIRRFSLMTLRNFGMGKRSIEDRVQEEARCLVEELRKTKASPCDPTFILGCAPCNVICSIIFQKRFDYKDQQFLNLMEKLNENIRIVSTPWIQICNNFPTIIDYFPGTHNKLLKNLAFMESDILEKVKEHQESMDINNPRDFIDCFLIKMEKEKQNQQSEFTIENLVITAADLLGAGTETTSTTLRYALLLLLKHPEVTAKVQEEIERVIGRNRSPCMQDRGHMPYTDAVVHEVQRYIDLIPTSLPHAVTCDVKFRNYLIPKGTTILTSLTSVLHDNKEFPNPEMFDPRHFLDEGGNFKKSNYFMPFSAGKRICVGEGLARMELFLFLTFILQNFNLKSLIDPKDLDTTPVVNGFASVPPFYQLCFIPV
Sequence of Cytochrome P450 3A4 (P08684 whole entry): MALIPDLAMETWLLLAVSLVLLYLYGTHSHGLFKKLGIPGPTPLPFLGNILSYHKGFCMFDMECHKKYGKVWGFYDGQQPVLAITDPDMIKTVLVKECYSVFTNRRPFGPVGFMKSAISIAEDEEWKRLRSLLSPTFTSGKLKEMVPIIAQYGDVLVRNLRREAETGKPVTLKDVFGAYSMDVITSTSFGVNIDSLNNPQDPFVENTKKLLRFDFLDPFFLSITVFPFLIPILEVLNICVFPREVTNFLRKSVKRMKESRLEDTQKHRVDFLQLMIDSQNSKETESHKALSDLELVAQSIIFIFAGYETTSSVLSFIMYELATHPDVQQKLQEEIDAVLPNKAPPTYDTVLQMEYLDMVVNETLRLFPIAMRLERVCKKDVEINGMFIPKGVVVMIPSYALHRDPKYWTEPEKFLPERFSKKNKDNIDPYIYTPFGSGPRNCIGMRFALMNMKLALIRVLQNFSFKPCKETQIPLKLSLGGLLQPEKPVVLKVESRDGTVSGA

CCn1cnc2cc(NCc3ccc(OC)cc3)ccc21
IC50 [1]: 92.1 µM (active)

COc1ccccc1N1CCN(CCC(=O)Nc2ccc3c(c2)OCO3)CC1
IC50 (Protein skinhead-1): > 100 µM (inactive)

CNc1oc(Cc2cccc3ccccc23)nc1C#N
IC50 [2]: 12.6 µM (active)

CCC(NC(C)c1ccccc1)=C1C(=O)NC(=O)NC1=O (stereo unspecified)
EC50 [3]: 18 µM (active)
EC50 [4]: > 120 µM (not active)
EC50 [5]: 18.2 µM (active)

COc1ccc(N2C(=O)/C(=C\c3ccco3)N=C2SCC(=O)NC(C)(C)C)cc1Cl
AC50 [6]: > 380 µM (inactive)
EC50 (Protein RecA): 20.7 µM (inconclusive)

Cc1cc(C(=O)CSc2n[nH]c(N)n2)c(C)n1-c1cc(F)ccc1F
IC50 [2]: 11.2 µM (active)

COc1ccc(C2C3=C(N=C4SCC(=O)N42)c2ccccc2CC3)cc1OC (stereo unspecified)
IC50 (Protein skinhead-1): > 100 µM (inactive)

CCCCCn1c(CN2CCCCC2C)nc2c1c(=O)n(C)c(=O)n2C (stereo unspecified)
AC50 (Cytochrome P450 2C19): 20 µM (inconclusive)
IC50 [2]: 13.2 µM (active)
AC50 (Cytochrome P450 3A4): 5.01 µM (inconclusive)

Cc1ccc(S(=O)(=O)N2CCCCC2)cc1NC(=O)CNCc1ccco1
IC50 [1]: 198 µM (active)

Cc1ccc(CSc2nc3ccccc3c(=O)n2Cc2ccco2)cc1
IC50 (Protein skinhead-1): > 100 µM (inactive)

N#C/C(=C\c1cc(Cl)c(OCc2ccc(Cl)cc2)c(Cl)c1)C(N)=O
CC50 [7]: 36.8 µM (active)
AC50 [6]: > 380 µM (inactive)
EC50 (Protein RecA): > 380 µM (inconclusive)

COCc1n[nH]c2c1C(c1ccc(OC)cc1)C(C#N)=C(N)O2 (stereo unspecified)
AC50 [6]: 25.8 µM (active)
EC50 (Protein RecA): 6.79 µM (active)

Clc1ccc(-c2cnc3ccccc3n2)cc1
IC50 (Protein skinhead-1): 92 µM (inactive)

CCCc1cc(-c2nc(-c3ccc(Cl)cc3)cs2)ccn1
AC50 [8]: 8.69 µM (active)
IC50 (Protein skinhead-1): 21 µM (active)

Nc1ccc(-n2nc3ccccc3n2)cc1
EC50 [3]: 31.8 µM (active)
EC50 [4]: 67 µM (active)
EC50 [5]: 5.68 µM (active)

CCOc1ccccc1/C=C/C(=O)NCC(=O)N1CCC(N(C)C2CCCCC2C)CC1 (stereo unspecified)
IC50 [2]: 14.8 µM (active)

COc1ccc(S(=O)(=O)N2CCCCCC2)cc1NC(=O)Cc1ccccc1F
EC50 [3]: 76.1 µM (active)
EC50 [4]: > 120 µM (not active)
EC50 [5]: > 120 µM (not active)

CCn1c(CSc2nnc(-c3ccncc3)n2CCOC)nc2cc(C(=O)O)ccc21
IC50 (Protein skinhead-1): > 100 µM (inactive)

Cc1c(Cl)cccc1N=C([S-])/C(=C(\O)c1ccc(Cl)s1)[n+]1ccccc1
AC50 [6]: 19.8 µM (active)
EC50 (Protein RecA): 12.9 µM (active)

Cc1cc(C)c(C)c(S(=O)(=O)Nc2ccc(O)cc2)c1C
IC50 [1]: 45.7 µM (active)

O=C(NCCCn1ccnc1)/C(=C\c1ccc(Br)cc1)NC(=O)c1ccccc1
IC50 [2]: 15.1 µM (active)

Nc1cc2c(cc1N)-c1ccccc1C2
IC50 [1]: 23 µM (active)

CCCCNC(=O)OCC(CC)NC(=O)OCC(C)C (stereo unspecified)
IC50 (Protein skinhead-1): > 100 µM (inactive)

Cc1csc2nc(CNS(=O)(=O)c3ccc4c(c3)CCCC4)cn12
IC50 (Protein skinhead-1): > 100 µM (inactive)

CC(CCn1cccn1)NC(=O)CCc1nnc(CCc2ccccc2)o1 (stereo unspecified)
AC50 [6]: > 380 µM (inactive)
EC50 (Protein RecA): > 380 µM (inactive)

COCCCNC(=O)c1ccc(OC)c(OC2CCN(C(C)C)CC2)c1
IC50 [2]: 2.51 µM (active)

CCc1nc2ccccc2c(C(=O)OCC(=O)N(CCOC)c2c(N)n(Cc3ccccc3)c(=O)[nH]c2=O)c1C
IC50 (Protein skinhead-1): > 100 µM (inactive)

O=C(Cc1ccc(Cl)cc1)N/N=C/c1ccc(O)c(O)c1
IC50 [1]: 19.7 µM (active)

COc1cc(/C=N/NC(=O)c2cn(-c3cccc(C)n3)cn2)ccc1O
IC50 [1]: 36.1 µM (active)

COc1ccccc1N1CCN(/N=C/c2ccc(O)cc2O)CC1
IC50 [1]: 48 µM (active)

C[N+](C)(C)CC=O [BETAINE ALDEHYDE CHLORIDE]
IC50 [2]: 15.1 µM (active)
